Data taken from patent US10294228B2, “Breathing control modulating compounds, and methods of making and using same” (NEURAD LTD., priority 2015, dated 2019).
Where a name gives a salt, the structure may show the parent alone.

Tested on: anesthetized rats
Test: Anesthetized rat spirometry screening assay (ventilatory activity, minute volume)
Assay type: in vivo
Details: increase in minute volume (VE); for change in vivo at 0.3 mg/kg: 0.3 mg/kg IV bolus, read-out: VE % Inc @ 0.3 mg/kg IV; for change in vivo at 3 mg/kg: 3.0 mg/kg IV bolus, read-out: VE % Inc @ 3.0 mg/kg IV
Protocol: Anesthetized rats provide a quick method of screening compounds for respiratory and cardiovascular activity.
Rats were initially anesthetized with 3% isoflurane (inhaled) and femoral artery and vein cannulas were surgically inserted. Once cannulated, the rats were transitioned to urethane anesthesia (1.5 g/kg; i.v.) and a tracheal cut-down was performed. After placing the tracheal cannula, it was connected to a pneumotachometer to record respiratory airflow from which respiratory rate (RR), tidal volume (VT), and their product minute volume (MV, also termed VE) were derived. After the surgical preparation was complete, animals were allowed to stabilize for 30 minutes while respiratory rate, tidal volume, minute volume, blood pressure and heart rate were recorded continuously. Arterial blood gases (ABG) were obtained from arterial blood collected from the femoral artery. ABG measurements were taken before and 6 minutes after vehicle and each dose of compound administered. Compounds being screened were administered via bolus injections through the venous cannula followed by a saline flush (total time of administration is approximately 30 seconds), and the animal was monitored for at least 6 minutes for changes in cardiovascular efforts. Compounds were prepared in formulations identified to ensure optimal solubility. As such, vehicle controls were matched for the formulation of each compound tested. Dosing of the compounds being screened was conducted at 0.1 and/or 0.3 mg/kg and/or 3 mg/kg The next dose was not administered until all cardiovascular and respiratory measures had returned to baseline levels. The positive control compounds used were N-[4,6-di-(n-propylamino)-[1,3,5]triazin-2-yl]-N,O-dimethyl-hydroxylamine or N-[2,6-di-(n-propylamino)-[1,3]pyrimidin-4-yl]-N,O-dimethyl-hydroxylamine (both administered at the end of each screening experiment (0.3 mg/kg dose) to validate the experiment and also to serve as a measure with which the compound being screened could be compared.
Data were analyzed by collecting cardiovascular and respiratory data in 30 second averages (BINs). Data were plotted 2 minutes before challenge and then 6 minutes after challenge.

CCCNc1nc(NC)nc2c(N(C)CCO)nc(NC)nc12 [Compound 6a, 2-[(2,6-Bis-methylamino-8-propylamino-pyrimido[5,4-d]pyrimidin-4-yl)-methyl-amino]-ethanol hydrochloride]
change in vivo at 0.3 mg/kg: 37%

CNc1nc(NCc2ccccc2)c2nc(NC)nc(NCCO)c2n1 [Compound 64a, 2-(8-Benzylamino-2,6-bis-methylamino-pyrimido[5,4-d]-pyrimidin-4-ylamino)-ethanol Hydrochloride]
change in vivo at 0.3 mg/kg: 32%
change in vivo at 3 mg/kg: 157%

CCNc1nc(NC[C@H](C)O)nc2c(NCC)nc(N)nc12 [Compound 172, (S)-1-(6-Amino-4,8-bis-ethylamino-pyrimido[5,4-d]-pyrimidin-2-ylamino)-propan-2-ol]
change in vivo at 0.3 mg/kg: 5%
change in vivo at 3 mg/kg: 155%

CCCNc1nc(NC)c2nc(N[C@H]3CCCC[C@H]3O)nc(NC)c2n1 [Compound 131, (1R,2S)-2-(4,8-Bis-methylamino-6-propylamino-pyrimido[5,4-d]pyrimidin-2-ylamino)-cyclohexanol]
change in vivo at 0.3 mg/kg: 18%
change in vivo at 3 mg/kg: 142%

CCCNc1nc(NC)c2nc(NCC(O)C(F)(F)F)nc(NC)c2n1 (stereo not drawn) [Compound 111, 3-(4,8-Bis-methylamino-6-propylamino-pyrimido[5,4-d]pyrimidin-2-ylamino)-1,1,1-trifluoro-propan-2-ol]
change in vivo at 0.3 mg/kg: 18%
change in vivo at 3 mg/kg: 105%

CC[C@H](C)Nc1nc(NC)nc2c(NCC(C)(C)O)nc(NC)nc12 [Compound 42a, 1-[8-((S)-sec-Butylamino)-2,6-bis-methylamino-pyrimido[5,4-d]-pyrimidin-4-ylamino]-2-methyl-propan-2-ol Hydrochloride]
change in vivo at 0.3 mg/kg: 76%
change in vivo at 3 mg/kg: 149%

CNc1nc(NCC(C)(C)O)c2nc(NC)nc(NCC3CC3)c2n1 [Compound 46a, 1-[8-(Cyclopropylmethyl-amino)-2,6-bis-methylamino-pyrimido[5,4-d]pyrimidin-4-ylamino]-2-methyl-propan-2-ol Hydrochloride]
change in vivo at 0.3 mg/kg: 79%
change in vivo at 3 mg/kg: 203%

CC[C@H](C)Nc1nc(NC)c2nc(NC[C@@H](C)O)nc(NC)c2n1 [Compound 104, (R)-1-[6-((S)-sec-Butylamino)-4,8-bis-methylamino-pyrimido[5,4-d]pyrimidin-2-ylamino]-propan-2-ol]
change in vivo at 0.3 mg/kg: 33%
change in vivo at 3 mg/kg: 98%

CCCNc1nc(NC)c2nc(NCC(C)(C)O)nc(NC)c2n1 [Compound 94, 1-(4,8-Bis-methylamino-6-propylamino-pyrimido[5,4-d]pyrimidin-2-ylamino)-2-methyl-propan-2-ol]
change in vivo at 0.3 mg/kg: 18%
change in vivo at 3 mg/kg: 130%

CCCNc1nc(NC)nc2c(N(C)CC(C)(C)O)nc(NC)nc12 [Compound 76, 1-[(2,6-Bis-methylamino-8-propylamino-pyrimido[5,4-d]pyrimidin-4-yl)-methyl-amino]-2-methyl-propan-2-ol]
change in vivo at 0.3 mg/kg: 37%
change in vivo at 3 mg/kg: 71%

C=CCNc1nc(NC)c2nc(N(C)C[C@H](C)O)nc(NC)c2n1 [Compound 156, (S)-1-[(6-Allylamino-4,8-bis-methylamino-pyrimido[5,4-d]pyrimidin-2-yl)-methyl-amino]-propan-2-ol]
change in vivo at 0.3 mg/kg: 16%
change in vivo at 3 mg/kg: 97%

CCCNc1nc(NC)c2nc(N(C)CC(C)(C)O)nc(NC)c2n1 [Compound 96, 1-[(4,8-Bis-methylamino-6-propylamino-pyrimido[5,4-d]pyrimidin-2-yl)-methyl-amino]-2-methyl-propan-2-ol]
change in vivo at 0.3 mg/kg: 70%
change in vivo at 3 mg/kg: 96%

CCCNc1nc(NC)c2nc(NCC(C)O)nc(NC)c2n1 (stereo not drawn) [Compound 95, 1-(4,8-Bis-methylamino-6-propylamino-pyrimido[5,4-d]-pyrimidin-2-ylamino)-propan-2-ol]
change in vivo at 0.3 mg/kg: 138%
